# Measurements published in patent US6218546A, “Reagent for the detection and isolation of carbohydrates or glycan receptors” (Roche Diagnostics GmbH, priority 1995, dated 2001).
# Assays:
# [1] = Stability of marker and saccharide conjugates (HPLC analysis); format: physicochemical; settings: after one week in MeOH at 25° C.
# [2] = target: digoxigenin-labelled SNA lectin (Sambucus nigra, UniProt Q41358); format: binding; settings: saccharide added to wells containing SNA as the lectin; fetuin sugar derivatives (10 pmol)
# Sequence of digoxigenin-labelled SNA lectin (Q41358 309-570 limits assumed): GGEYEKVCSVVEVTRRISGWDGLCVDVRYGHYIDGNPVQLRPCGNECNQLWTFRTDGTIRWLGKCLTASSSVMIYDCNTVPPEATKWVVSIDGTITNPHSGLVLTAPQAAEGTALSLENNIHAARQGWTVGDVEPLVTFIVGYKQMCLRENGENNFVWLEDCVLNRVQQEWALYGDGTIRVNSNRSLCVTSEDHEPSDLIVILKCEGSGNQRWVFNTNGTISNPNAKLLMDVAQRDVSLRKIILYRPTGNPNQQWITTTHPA
# Sequence of digoxigenin-labelled SNA lectin (Q41358 29-292 partner limits assumed): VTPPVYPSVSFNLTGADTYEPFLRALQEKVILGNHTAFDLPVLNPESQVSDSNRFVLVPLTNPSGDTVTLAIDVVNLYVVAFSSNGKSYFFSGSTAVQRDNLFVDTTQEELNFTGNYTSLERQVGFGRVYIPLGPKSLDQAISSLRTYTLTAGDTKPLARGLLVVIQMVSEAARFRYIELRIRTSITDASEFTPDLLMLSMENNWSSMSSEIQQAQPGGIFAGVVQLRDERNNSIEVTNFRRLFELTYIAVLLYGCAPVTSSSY
# [3] = target: T1, digoxigenin-labelled MAA lectin (Maackia amurensis, UniProt P0DKL3); experiment: Inhibition of digoxigenin-labelled MAA lectin binding to immobilized fetuin sugar derivatives on streptavidin microtitre plate; settings: fetuin sugar derivatives (10 pmol) on the MTP
# T1 sequence (P0DKL3 30-278 limits assumed): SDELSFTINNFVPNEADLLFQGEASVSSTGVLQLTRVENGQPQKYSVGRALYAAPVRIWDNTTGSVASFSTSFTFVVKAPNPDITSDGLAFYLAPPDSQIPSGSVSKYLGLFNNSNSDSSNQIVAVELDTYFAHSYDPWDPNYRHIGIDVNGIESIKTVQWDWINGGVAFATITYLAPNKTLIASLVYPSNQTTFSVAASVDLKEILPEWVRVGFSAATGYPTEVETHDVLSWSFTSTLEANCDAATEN
# [4] = target: T1, digoxigenin-labelled MAA lectin; experiment: Detection of immobilized sugar derivative with digoxigenin-labelled MAA lectin on streptavidin microtitre plate; format: binding; settings: 0.5-20 pmol/well, read at 405 nm
# Procedure: Derivatized N-acetyl-neuraminosyl-2,3-D-lactose in TBS is incubated for 4 h at room temperature on a microtitre plate coated with streptavidin as a model substance to test the standard conditions. After immobilization of the sugar derivative (0.5-20 pmol/well in the microtitre plate; dissolved in TBS) the wells are washed five times with 0.25 ml TBS. In order to bind the digoxigenin-labelled MAA lectin (specific for N-acetyl-neuraminosyl-α(2-3)Gal residues) 1-10 μg of the lectin is dissolved in 1 ml TBSM (TBSM=TBS containing 1 mM MgCl2, 1 mM MnCl2 and 1 mM CaCl2) containing 0.5% blocking reagent (Boehringer Mannheim) and subsequently 0.2 ml of the lectin solution/well is incubated for 1 hour at room temperature while shaking gently. After the lectin has bound the wells are washed five times with 0.25 ml buffer (TBST=TBS containing 0.1% Tween-20®). […] The colour development is read at 405 nm and RT after an incubation period of ca. 20 to 30 min. […]
# For the detection of N-acetyl-neuraminosyl-2,3-D-lactose the wells are washed five times with 0.25 ml TBS after immobilization of the sugar derivative (0.5-20 pmol/well in the microtitre plate; dissolved in TBS). […] The colour development is read at 405 nm and RT after an incubation period of ca. 20 to 30 min. […]
smiles,measurement,setting,value
"NNC(=O)NCCNC(=O)c1ccccc1N=Nc1ccc(O)cc1 [marker 4, 2-[2'-(4""-hydroxybenzeneazo)-benzoic acid amido]-ethylsemicarbazide]",decomposition of the marker,[1],no decomposition
"CC(=O)NC1C(O)CC(OC2C(O)C(CO)OC(OC3C(CO)OC(O)C(O)C3O)C2O)(C(=O)O)OC1C(O)C(O)CO [N-acetyl-neuraminosyl-2,3-D-lactose]",inhibition of lectin signal,[2],no inhibition
same,"signal strength, % of the value without inhibition",[3]; 200 pmol added,about 50%
same,"signal strength, % of the value without inhibition",[3]; 500 pmol added,about 15%
CC(=O)NC1C(O)CC(OC2C(O)C(CO)OC(OC3C(CO)OC(NNC(=O)NCCNC(=O)c4ccccc4N=Nc4ccc(O)cc4)C(O)C3O)C2O)(C(=O)O)OC1C(O)C(O)CO (stereo not drawn),detection limit,[4]; conjugate with BNAH (Example 6),0.5 pmol
same,detection limit,[4]; conjugate with marker 4 (Example 4),0.5 pmol
